Drawing on US11957759B1, “Rapidly accelerated fibrosarcoma (RAF) degrading compounds and associated methods of use” (Arvinas Operations, Inc., priority 2022, dated 2024), this text covers DC50 and Dmax for 13 compounds.

One may read the DC50 as the concentration giving 50% degradation. One may read the Dmax as the largest share of the target that was removed. Low readings indicate a partial loss of target, high ones a fuller loss of target.

In one experiment the target is T1, B-RAF V600E (Homo sapiens, UniProt P15056, V600E).
T1 construct: expressed in transfected cells; host or cells: T-Rex 293 cells (Invitrogen #R71007)
T1 sequence (P15056 whole entry V600E): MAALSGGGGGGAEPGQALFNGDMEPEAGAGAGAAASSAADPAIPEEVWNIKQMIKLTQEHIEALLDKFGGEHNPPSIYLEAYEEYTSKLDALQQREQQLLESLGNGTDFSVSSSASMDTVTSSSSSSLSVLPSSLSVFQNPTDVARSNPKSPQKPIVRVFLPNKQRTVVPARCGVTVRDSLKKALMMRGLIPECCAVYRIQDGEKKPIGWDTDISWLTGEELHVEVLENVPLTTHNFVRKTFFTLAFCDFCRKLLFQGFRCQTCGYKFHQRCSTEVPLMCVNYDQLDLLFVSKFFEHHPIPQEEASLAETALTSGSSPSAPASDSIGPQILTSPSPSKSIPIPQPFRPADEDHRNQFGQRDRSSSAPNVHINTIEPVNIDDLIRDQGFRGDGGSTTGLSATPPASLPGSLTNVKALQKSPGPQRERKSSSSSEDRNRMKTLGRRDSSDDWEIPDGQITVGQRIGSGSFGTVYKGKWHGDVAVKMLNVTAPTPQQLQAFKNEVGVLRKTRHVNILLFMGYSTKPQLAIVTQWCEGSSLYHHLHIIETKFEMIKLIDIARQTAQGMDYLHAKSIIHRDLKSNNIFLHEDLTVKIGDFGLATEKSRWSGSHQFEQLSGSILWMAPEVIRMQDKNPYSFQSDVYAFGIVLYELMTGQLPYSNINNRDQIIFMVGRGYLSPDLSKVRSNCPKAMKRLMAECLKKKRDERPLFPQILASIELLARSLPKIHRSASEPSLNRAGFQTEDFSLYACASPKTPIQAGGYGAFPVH
The experiment can be described thus: Target protein degradation, assay C: T-Rex 293 cells, HA-BRAF_V600E, 384 well format. In kind it is cell-based. Particulars: T-Rex 293 HA-BRAF_V600E cells, 24 hours, Examples 83-269; for DC50: Assay C; for Dmax: T-REx-293, Assay C. In a few lines:
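T-Rex 293 cells stably expressing doxycycline-induced (1 ng/mL) HA-BRAF V600E were treated 24 h at 37 °C with compound (300 nM–5 pM, 11 points, 0.5% DMSO). HA immunofluorescence was quantified by high-content imaging to give DC50 and Dmax (% of control); nuclei counts versus DMSO gauged toxicity.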

The target of a further experiment is T2, B-RAF G466V (Homo sapiens, UniProt P15056, G466V).
T2 construct: expressed in transfected cells; host or cells: T-Rex 293 cells (Invitrogen #R71007)
T2 sequence (P15056 whole entry G466V): as the sequence (P15056 whole entry V600E) above, with G466V, E600V counted along it
The experiment can be described thus: Target protein degradation, assay D: T-Rex 293 cells, HA-BRAF_G466V, 384 well format. The experiment is classed as cell-based. Particulars: T-Rex 293 HA-BRAF_G466V cells, 24 hours, Examples 83-269; for DC50: Assay D; for Dmax: T-REx-293, Assay D. In a few lines: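 T-Rex 293 cells stably expressing doxycycline-induced (1 ng/mL) HA-BRAF G466V treated 24 h at 37 °C with PROTACs, 11-point 1:3 dilution, 300 nM to 5 pM final, 0.5% DMSO. Fixed cells immunostained for HA and imaged by high-content microscopy; DC50 and Dmax (% of control) derived, toxicity from nuclei counts versus DMSO.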

For `Cc1cc(N2CC(CN3CCN(c4ccc(-n5cnc6ccc(Oc7c(F)ccc(NS(=O)(=O)N8CC[C@@H](F)C8)c7C#N)cc6c5=O)cc4)CC3)C2)cc2c1C(=O)N([C@H]1CCC(=O)NC1=O)C2` [Example 234, (3R)-N-(2-cyano-3-{[3-(4-{4-[(1-{2-[(3S)-2,6-dioxopiperidin-3-yl]-7-methyl-1-oxo-2,3-dihydro-1H-isoindol-5-yl}azetidin-3-yl)methyl]piperazin-1-yl}phenyl)-4-oxo-3,4-dihydroquinazolin-6-yl]oxy}-4-fluorophenyl)-3-fluoropyrrolidine-1-sulfonamide], the DC50 on B-RAF V600E is 50 to 500 nM; on B-RAF G466V, 1 to 10 nM. Also, the Dmax at B-RAF V600E and at B-RAF G466V was 35 to 70% in each case.

On to `O=C1CCC(N2Cc3cc(N4CCC(CN5CCN(c6ccc(-n7cnc8ccc(Oc9c(F)ccc(NS(=O)(=O)N%10CC[C@@H](F)C%10)c9F)cc8c7=O)cc6)CC5)CC4)ccc3C2=O)C(=O)N1` (stereo partly drawn) [Example 177, (3R)—N-{3-[(3-{4-[4-({1-[2-(2,6-dioxopiperidin-3-yl)-1-oxo-2,3-dihydro-1H-isoindol-5-yl]piperidin-4-yl}methyl)piperazin-1-yl]phenyl}-4-oxo-3,4-dihydroquinazolin-6-yl)oxy]-2,4-difluorophenyl}-3-fluoropyrrolidine-1-sulfonamide], for which the DC50 lay within 5 to 50 nM at B-RAF V600E and 1 to 10 nM at B-RAF G466V. For the same compound, the Dmax on B-RAF V600E and on B-RAF G466V was 35 to 70% throughout.

At B-RAF V600E, `N#Cc1c(NS(=O)(=O)N2CC[C@@H](F)C2)ccc(F)c1Oc1ccc2ncn(-c3ccc(N4CC(CN5CCC(c6ccc7c(c6)CN([C@H]6CCC(=O)NC6=O)C7=O)CC5)C4)cc3)c(=O)c2c1` [Example 189, (3R)-N-(2-cyano-3-{[3-(4-{3-[(4-{2-[(3S)-2,6-dioxopiperidin-3-yl]-1-oxo-2,3-dihydro-1H-isoindol-5-yl}piperidin-1-yl)methyl]azetidin-1-yl}phenyl)-4-oxo-3,4-dihydroquinazolin-6-yl]oxy}-4-fluorophenyl)-3-fluoropyrrolidine-1-sulfonamide] had a DC50 of 50 to 500 nM and a Dmax of 35 to 70%. In addition, at B-RAF G466V, the DC50 was in the range of 1 to 10 nM and the Dmax lay in the range of 35 to 70%.

As to `N#Cc1c(NS(=O)(=O)N2CC[C@@H](F)C2)ccc(F)c1Oc1ccc2ncn(-c3ccc(N4CCN(CC5(F)CCN(c6ccc7c(c6)CN([C@H]6CCC(=O)NC6=O)C7=O)CC5)CC4)cc3)c(=O)c2c1` [Example 223, (3R)-N-(2-cyano-3-{[3-(4-{4-[(1-{2-[(3S)-2,6-dioxopiperidin-3-yl]-1-oxo-2,3-dihydro-1H-isoindol-5-yl}-4-fluoropiperidin-4-yl)methyl]piperazin-1-yl}phenyl)-4-oxo-3,4-dihydroquinazolin-6-yl]oxy}-4-fluorophenyl)-3-fluoropyrrolidine-1-sulfonamide], on B-RAF V600E, the DC50 lay in the range of 50 to 500 nM and the Dmax was in the range of 35 to 70%. At B-RAF G466V, the DC50 fell in the range of 1 to 10 nM and the maximal degradation (Dmax) was 35 to 70%.

Turning to `CN(CC1CCN(c2ccc(-n3cnc4ccc(Oc5c(F)ccc(NS(=O)(=O)N6CC[C@@H](F)C6)c5C#N)cc4c3=O)cc2)CC1)[C@H]1C[C@@H](Oc2ccc3c(c2)CN([C@H]2CCC(=O)NC2=O)C3=O)C1` [Example 206, (3R)-N-{2-cyano-4-fluoro-3-[(3-{4-[4-({methyl[(1r,3r)-3-({2-[(3S)-2,6-dioxopiperidin-3-yl]-1-oxo-2,3-dihydro-1H-isoindol-5-yl}oxy)cyclobutyl]amino}methyl)piperidin-1-yl]phenyl}-4-oxo-3,4-dihydroquinazolin-6-yl)oxy]phenyl}-3-fluoropyrrolidine-1-sulfonamide], the DC50 at B-RAF V600E fell in the range of 50 to 500 nM; on B-RAF G466V, 1 to 10 nM. In addition, the Dmax at B-RAF V600E was at least 70%; at B-RAF G466V it was at most 35%.

For `N#Cc1c(NS(=O)(=O)N2CC[C@@H](F)C2)ccc(F)c1Oc1ccc2ncn(-c3ccc(N4CCC5(CC4)CC(OC4CCN(c6ccc7c(c6)CN([C@@H]6CCC(=O)NC6=O)C7=O)CC4)C5)cc3)c(=O)c2c1` [Example 252, (3R)-N-(2-cyano-3-{[3-(4-{2-[(1-{2-[(3R)-2,6-dioxopiperidin-3-yl]-1-oxo-2,3-dihydro-1H-isoindol-5-yl}piperidin-4-yl)oxy]-7-azaspiro[3.5]nonan-7-yl}phenyl)-4-oxo-3,4-dihydroquinazolin-6-yl]oxy}-4-fluorophenyl)-3-fluoropyrrolidine-1-sulfonamide], on B-RAF V600E, the DC50 lay within 5 to 50 nM and the Dmax is at most 35%. In addition, at B-RAF G466V, the DC50 is 1 to 10 nM and the Dmax lay in the range of 35 to 70%.

On to `N#Cc1c(NS(=O)(=O)N2CC[C@@H](F)C2)ccc(F)c1Oc1ccc2ncn(-c3ccc(N4CCN(CC5CCN(c6cc7c(c(OC(F)(F)F)c6)C(=O)N(C6CCC(=O)NC6=O)C7)CC5)CC4)cc3)c(=O)c2c1` (stereo partly drawn) [Example 265, (3R)-N-{2-cyano-3-[(3-{4-[4-({1-[2-(2,6-dioxopiperidin-3-yl)-1-oxo-7-(trifluoromethoxy)-2,3-dihydro-1H-isoindol-5-yl]piperidin-4-yl}methyl)piperazin-1-yl]phenyl}-4-oxo-3,4-dihydroquinazolin-6-yl)oxy]-4-fluorophenyl}-3-fluoropyrrolidine-1-sulfonamide], for which the DC50 was 50 to 500 nM on B-RAF V600E and 10 to 30 nM on B-RAF G466V. The greatest degradation seen (Dmax) on B-RAF V600E and on B-RAF G466V was 35 to 70% throughout.

As for `N#Cc1c(NS(=O)(=O)N2CC[C@@H](F)C2)ccc(F)c1Oc1ccc2ncn(-c3ccc(N4CCN(CC5CCN(c6ccc(C7CCC(=O)NC7=O)nc6)CC5)CC4)cc3)c(=O)c2c1` (stereo partly drawn) [Example 95, (3R)-N-{2-cyano-3-[(3-{4-[4-({1-[6-(2,6-dioxopiperidin-3-yl)pyridin-3-yl]piperidin-4-yl}methyl)piperazin-1-yl]phenyl}-4-oxo-3,4-dihydroquinazolin-6-yl)oxy]-4-fluorophenyl}-3-fluoropyrrolidine-1-sulfonamide], at B-RAF V600E, the DC50 lay within 5 to 50 nM and the Dmax was in the range of 35 to 70%. Further, on B-RAF G466V, the DC50 fell in the range of 1 to 10 nM and the Dmax was at most 35%.

With `N#Cc1c(NS(=O)(=O)N2CC[C@@H](F)C2)ccc(F)c1Oc1ccc2ncn(-c3ccc(N4CCN(CC5CCN(c6ccc7c(c6)CN(C6CCC(=O)NC6=O)C7=O)CC5)CC4)cc3F)c(=O)c2c1` (stereo partly drawn) [Example 87, (3R)-N-{2-cyano-3-[(3-{4-[4-({1-[2-(2,6-dioxopiperidin-3-yl)-1-oxo-2,3-dihydro-1H-isoindol-5-yl]piperidin-4-yl}methyl)piperazin-1-yl]-2-fluorophenyl}-4-oxo-3,4-dihydroquinazolin-6-yl)oxy]-4-fluorophenyl}-3-fluoropyrrolidine-1-sulfonamide], the DC50 on B-RAF V600E is above 500 nM; on B-RAF G466V, above 30 nM.

Regarding `N#Cc1c(NS(=O)(=O)N2CC[C@@H](F)C2)ccc(F)c1Oc1ccc2ncn(-c3cccc(C4CCN(CC5CCN(c6ccc7c(c6)CN([C@H]6CCC(=O)NC6=O)C7=O)CC5)C4)c3)c(=O)c2c1` (stereo partly drawn) [Example 211, (3R)-N-(2-cyano-3-{[3-(3-{1-[(1-{2-[(3S)-2,6-dioxopiperidin-3-yl]-1-oxo-2,3-dihydro-1H-isoindol-5-yl}piperidin-4-yl)methyl]pyrrolidin-3-yl}phenyl)-4-oxo-3,4-dihydroquinazolin-6-yl]oxy}-4-fluorophenyl)-3-fluoropyrrolidine-1-sulfonamide], the results for the DC50 on B-RAF V600E and at B-RAF G466V were 50 to 500 nM and 1 to 10 nM, respectively. Further, the Dmax on B-RAF V600E and at B-RAF G466V was 35 to 70% each time.

For the compound `N#Cc1c(NS(=O)(=O)N2CC[C@@H](F)C2)ccc(F)c1Oc1ccc2ncn(-c3cnc(N4CCC(CN5CC6(CCN(c7ccc8c(c7)CN(C7CCC(=O)NC7=O)C8=O)CC6)C5)CC4)nc3)c(=O)c2c1` (stereo partly drawn) [Example 132, (3R)-N-{2-cyano-3-[(3-{2-[4-({7-[2-(2,6-dioxopiperidin-3-yl)-1-oxo-2,3-dihydro-1H-isoindol-5-yl]-2,7-diazaspiro[3.5]nonan-2-yl}methyl)piperidin-1-yl]pyrimidin-5-yl}-4-oxo-3,4-dihydroquinazolin-6-yl)oxy]-4-fluorophenyl}-3-fluoropyrrolidine-1-sulfonamide], on B-RAF V600E, the DC50 was 50 to 500 nM and the Dmax lay in the range of 35 to 70%. For the same compound, on B-RAF G466V, the DC50 was at most 1 nM and the Dmax lay within 35 to 70%.

`N#Cc1c(NS(=O)(=O)N2CC[C@@H](F)C2)ccc(F)c1Oc1ccc2ncn(-c3ccc(N4CC(CN5CC(c6ccc7c(c6)CN([C@H]6CCC(=O)NC6=O)C7=O)C5)C4)cc3)c(=O)c2c1` [Example 204]: on B-RAF V600E, the DC50 was in the range of 50 to 500 nM and the Dmax lay in the range of 35 to 70%. On B-RAF G466V, this compound showed a DC50 of 1 to 10 nM and a Dmax of at most 35%.

At B-RAF V600E, `N#Cc1c(NS(=O)(=O)N2CC[C@@H](F)C2)ccc(F)c1Oc1ccc2ncn(-c3ccc(N4CC5(CCN(CC6CCN(c7ccc8c(c7)CN([C@@H]7CCC(=O)NC7=O)C8=O)CC6)CC5)C4)cc3)c(=O)c2c1` [Example 193, (3R)-N-(2-cyano-3-{[3-(4-{7-[(1-{2-[(3R)-2,6-dioxopiperidin-3-yl]-1-oxo-2,3-dihydro-1H-isoindol-5-yl}piperidin-4-yl)methyl]-2,7-diazaspiro[3.5]nonan-2-yl}phenyl)-4-oxo-3,4-dihydroquinazolin-6-yl]oxy}-4-fluorophenyl)-3-fluoropyrrolidine-1-sulfonamide] showed a DC50 of 50 to 500 nM and a Dmax of 35 to 70%. For the same compound, on B-RAF G466V, the DC50 fell in the range of 1 to 10 nM and the Dmax is 35 to 70%.
